Test results: patent US20110028719A1, “SCREENING METHODS FOR AMYLOID BETA MODULATORS” (priority 2006, published 2011)

biological target: immobilized Aβ fibrils (Homo sapiens, UniProt P05067); experiment: FAC-MS assay of free Aβ monomer (indicator) binding to immobilized Aβ fibrils in the presence of test compounds; conditions: FAC-MS % shift of breakthrough time of free Aβ1-42 monomer (1 μM) on immobilized Aβ fibrils; compounds 1-10 μM in 20 mM NH4OAc, 1% DMSO; void marker M3
Sequence (P05067 672-713 limits assumed): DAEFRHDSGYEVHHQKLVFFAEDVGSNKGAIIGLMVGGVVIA

Compound	% of Shift [%]
O=P(O)(O)O[C@@H]1C(O)[C@@H](OP(=O)(O)O)[C@@H](O)C(O)[C@H]1O (stereo partly drawn) [Compound I-3139, D-Myo-inositol-2,4-bis-phosphate, reference compound]	12
CC(=O)OC1C(OC(=O)C(C)(C)C)C(OC(=O)C(C)(C)C)C(OC(C)=O)C(OC(=O)C(C)(C)C)C1OC(=O)C(C)(C)C (stereo not shown) [Compound 37387004, 2,5-bis(acetoxy)-3,4,6-tris[(2,2-dimethylpropanoyl)oxy]cyclohexyl pivalate]	4
1,2,5,6-bis-O-(1-Methylethyldene)-3-methyl-1D-chiro-inositol [Compound 53234-7, reference compound]	4
OC1C(O)C(O)C(O)C(O)C1O (stereo not shown) [Chiro, chiro-inositol, reference compound]	2

same assay, conditions: FAC-MS % shift of free Aβ monomer breakthrough on immobilized Aβ fibrils in presence of the compound (screen, Table 2)

Aβ Shift	Compound
2	Oc1c(I)cc(Cl)c2cccnc12

same assay, conditions: FAC-MS screen; shift of free Aβ monomer breakthrough on immobilized Aβ fibrils in presence of compound; scale not given

Compound	Aβ Shift
CC12CC3(C)CC(C)(C1)CC(C(=O)NC(C)(C)CO)(C2)C3	1
CC(=O)O[C@H]1[C@@H](OC(=O)CC(C)C)[C@H](OC(=O)CC(C)C)[C@@H](OC(=O)CC(C)C)[C@H](OC(=O)CC(C)C)[C@H]1OC(=O)CC(C)C	3
CC1CCC(C(C)C)C(OC(=O)C2C3CCCCC32)C1 (stereo not shown)	0
COC(=O)C1(C)CC2(C)CC(C)(C1)C(=O)N(C)C2=O (stereo not shown)	1
CC12CC3(C)CC(CC(N)=O)(C1)CC(C(N)=O)(C2)C3	0
CC1CCN(CC(O)COC2CC(C)CC(C)(C)C2)CC1 (stereo not shown)	0
COC(=O)C12CC3(C)CC(C)(CC(C)(C3)C1)C2	1
CC12CC3CC(C)(C1)CC(CN)(C3)C2	2
CCCCCCCCC(=O)NC1CC(C)CC(C)(C)C1 (stereo not shown)	0
CC(=O)NC12CC3(C)CC(C)(CC(O)(C3)C1)C2	1
CC1(C)CC(=O)C2=C(C1)CC1(C)CC(C)(C)CC2(O)C1 (stereo not shown)	0
CC(=O)OCC12COC(C)(CC1C)CC2C (stereo not shown)	1
CC12CC3(C)CC(C)(C1)CC(C1(C)CC(=O)O1)(C2)C3 (stereo not shown)	0
CC12CC3CC(C)(C1)CC(O)(C3)C2	0
CC12CC3CC(C)(C1)CC(C(=O)NNC(N)=O)(C3)C2	1
CC12CC3CC(C)(C1)CC(CN1CCOCC1)(C3)C2	1
CC1CC(OC(=O)CN2CCCCC2)CC(C)(C)C1 (stereo not shown)	1
CC(N)C12CC3CC(C)(CC(C)(C3)C1)C2 (stereo not shown)	0
CC12CC3CC(C)(C1)CC(C(=O)CCC(=O)O)(C3)C2	1
COC(=O)C12CC3CC(C)(CC(C)(C3)C1)C2	1
CCN(CC)CC12CC3CC(C)(CC(C)(C3)C1)C2	2
CC1C2CC3(C)CC(C(=O)O)(C2)CC1(C)C3 (stereo not shown)	1

Continued, values first:

Aβ Shift	Compound
1	CC1CCCC(n2c(=S)[nH]c3ccccc3c2=O)C1C (stereo not shown)
1	CC1CCC(C(C)C)C(OC(=O)c2ccncc2)C1 (stereo not shown)
0	CC1CCCC(NC(=O)c2nc[nH]n2)C1C (stereo not shown)
0	CC1CCCC(NC(=O)CCC2CCCCC2)C1C (stereo not shown)
1	CC1C(C(=O)Nc2ccccc2)CCCC1(C)C(=O)O (stereo not shown)
1	CC12CC3CC(C)(C1)CC(CNC(=O)c1ccccc1)(C3)C2
1	CC1CCC(C(C)C)C(OC(=O)C(O)O)C1 (stereo not shown)
2	Cc1ccc(C(=O)OC2CC(C)CCC2C(C)C)cc1C (stereo not shown)
1	C=CC1CCC(O)C(O)C1 (stereo not shown)
0	CC1CC(C)CC(OC(=O)c2ccco2)C1 (stereo not shown)
2	CC1CCCC(NC(=O)Cc2cn(C)c3ccccc23)C1C (stereo not shown)
0	COc1ccc(C2(O)C(C)CCCC2C)cc1 (stereo not shown)
1	CC1CCN(CC(=O)OC2CC(C)CCC2C(C)C)CC1 (stereo not shown)
2	CC1CCCC(NC(=O)c2csc3c2CCCC3)C1C (stereo not shown)
1	CC(=O)c1[nH]c(C)c(C(=O)NC2CCCC(C)C2C)c1C (stereo not shown)
2	Cc1cccc(NC(=O)C23CC4CC(C)(CC(C)(C4)C2)C3)c1
2	CC1CCCC(NC(=O)Nc2cccs2)C1C (stereo not shown)
1	Cc1ccc(C(C)(C)CC(C)NC2CCCC(C)C2C)o1 (stereo not shown)
1	CC1CCCC(NC(=O)Cn2cc3c(n2)CCCC3)C1C (stereo not shown)
2	CC1CC(NS(=O)(=O)c2cccs2)CC(C)(C)C1 (stereo not shown)
1	CC1CCCC(n2cnc3cc(C(=O)O)ccc32)C1C (stereo not shown)
1	CCCC1CCC(c2ccc(C(C)=O)cc2)CC1C (stereo not shown)
